Legend:
[1] = Extrapolation of human oral dose by allometric scaling and pharmacokinetic simulation; details: human equivalent dose of 0.8 mg/kg
Protocol: A pharmacokinetic extrapolation for a human oral dose was performed using allometric scaling of clearance and volume of distribution. The human pharmacokinetic values were extrapolated from in vivo mouse, rat, dog and monkey pharmacokinetic studies. […] This model was based on the assumption that all of the clearance pathways in the human were captured in the pre-clinical species.

Caco-2 cell = assay: Bidirectional permeability in Caco-2 cells; format: in vitro ADME, human
Protocol: (§1) To determine bidirectional permeability, CFMQ was examined in an in vitro incubation assay with […] (Caco-2 cell). CFMQ at 5 μM was dosed to the cell monolayers on the apical side (A-to-B) or basolateral side (B-to-A) and incubated at 37° C. with 5% CO2 for 120 minutes. Permeability of Lucifer Yellow (500 μM) was measured to ensure no damage was inflicted to the cell monolayers during the CFMQ flux period. All samples were assayed by LC-MS/MS using electrospray ionization.

[2] = Bidirectional permeability in Caco-2 cells; format: in vitro ADME, human; details: human, 5 μM, 120 minutes
Protocol: as §1

[3] = Pharmacokinetics, single oral gavage, 2 formulations, Wistar and Sprague-Dawley rats; format: in vivo; details: for AUC(0-inf) / AUC(0-t) / Cmax / Tmax / half-life: rat, plasma, po
Protocol: Pharmacokinetics and gender differences were evaluated with 2 different formulations of CFMQ (HGT3711) in 2 different types of rat models. These attributes were investigated in a single oral gavage study. Male and female Wistar rats (n=3 per dose group) received CFMQ (HGT3711) at 15, […], and or 150 mg/kg. […] The two vehicle formulations evaluated were formulation 1: 10% N-methyl pyrrolidone (NMP): 10% Ethanol: 30% polyethylene glycol (PEG400): 50% […] (lauroyl polyoxylglycerides); and formulation 2: 10% NMP: 0% PEG400: 20% CREMOPHOR EL (Macrogolglycerol ricinoleate): 25% […] 44/14 (lauroyl polyoxylglycerides): 25% CAPROYOL 90 (Propylene Glycol Caprylate).
Blood samples were taken via cardiac puncture prior to administration and at 0.25 (15 min), 0.50 (30 min), 1, 2, 4, 8 and 24 hours post dose. Plasma concentrations of CFMQ (HGT3711) were determined by LC-MS/MS and nominal dosing concentrations were used in all calculations.

[4] = female, Sprague-Dawley, 75 mg/kg, Formulation 1, S-D (Female)
[5] = female, Sprague-Dawley, 75 mg/kg, Formulation 2, S-D (Female)
[6] = female, Wistar, 15 mg/kg, Formulation 1, Wistar (Female)
[7] = female, Wistar, 15 mg/kg, Formulation 2, Wistar (Female)
[8] = female, Wistar, 75 mg/kg, Formulation 1, Wistar (Female)
[9] = female, Wistar, 75 mg/kg, Formulation 2, Wistar (Female)
[10] = female, Wistar, 150 mg/kg, Formulation 1, Wistar (Female)
[11] = female, Wistar, 150 mg/kg, Formulation 2, Wistar (Female)
[12] = male, Sprague-Dawley, 75 mg/kg, Formulation 1, S-D (Male)
[13] = male, Sprague-Dawley, 75 mg/kg, Formulation 2, S-D (Male)
[14] = male, Wistar, 15 mg/kg, Formulation 1, Wistar (Male)
[15] = male, Wistar, 15 mg/kg, Formulation 2, Wistar (Male)
[16] = male, Wistar, 75 mg/kg, Formulation 1, Wistar (Male)
[17] = male, Wistar, 75 mg/kg, Formulation 2, Wistar (Male)
[18] = male, Wistar, 150 mg/kg, Formulation 1, Wistar (Male)
[19] = male, Wistar, 150 mg/kg, Formulation 2, Wistar (Male)

## Cc1cc(Cl)c(COc2cccc3c(-n4cc(F)cn4)cc(C)nc23)c(Cn2cccc(C#N)c2=O)n1 [CFMQ, 1-((4-Chloro-3-(((4-(4-fluoro-1H-pyrazol-1-yl)-2-methylquinolin-8-yl)oxy)methyl)-6-methylpyridin-2-yl)methyl)-2-oxo-1,2-dihydropyridine-3-carbonitrile]
[1]; bioavailability 25%
  time plasma levels stay above the predicted efficacious levels: greater than 5 hours
[1]; bioavailability 50%
  time plasma levels stay above the predicted efficacious levels: > 10 h
[1]; bioavailability 75%
  time plasma levels stay above the predicted efficacious levels: > 12 h
Caco-2 cell
  efflux: no significant efflux
  permeability classification: highly permeable
[2]; apical to basolateral, read-out: permeability coefficient A-to-B
  Papp A→B at 120 min, 5 μM: 34 ×10⁻⁶ cm/s
[2]; basolateral to apical, read-out: permeability coefficient B-to-A
  Papp B→A at 120 min, 5 μM: 38 ×10⁻⁶ cm/s
[3]; average dose normalized AUC values, both S-D and Wistar
  oral exposure in female rats compared to male rats: 20-40 times
[3]; [4]
  AUC(0-inf): 14300 ng·h/mL
  AUC(0-t): 11900 ng·h/mL
  Cmax: 2280 ng/mL
  Tmax: 0.5 h
  half-life: 2.01 h
[3]; [5]
  AUC(0-inf): 20800 ng·h/mL
  AUC(0-t): 20600 ng·h/mL
  Cmax: 2180 ng/mL
  Tmax: 0.83 h
  half-life: 3.58 h
[3]; [6]
  AUC(0-inf): 6650 ng·h/mL
  AUC(0-t): 4660 ng·h/mL
  Cmax: 1140 ng/mL
  Tmax: 0.83 h
  half-life: 3.1 h
[3]; [7]
  AUC(0-inf): 5810 ng·h/mL
  AUC(0-t): 5210 ng·h/mL
  Cmax: 592 ng/mL
  Tmax: 3.33 h
  half-life: 6.08 h
[3]; [8]
  AUC(0-inf): 11100 ng·h/mL
  AUC(0-t): 11100 ng·h/mL
  Cmax: 2550 ng/mL
  Tmax: 0.58 h
  half-life: 3.13 h
[3]; [9]
  AUC(0-inf): 11300 ng·h/mL
  AUC(0-t): 10700 ng·h/mL
  Cmax: 2200 ng/mL
  Tmax: 0.75 h
  half-life: 3.12 h
[3]; [10]
  AUC(0-inf): 9060 ng·h/mL
  AUC(0-t): 8710 ng·h/mL
  Cmax: 1850 ng/mL
  Tmax: 0.33 h
  half-life: 5.42 h
[3]; [11]
  AUC(0-inf): 6440 ng·h/mL
  AUC(0-t): 6430 ng·h/mL
  Cmax: 1580 ng/mL
  Tmax: 0.33 h
  half-life: 2.64 h
[3]; [12]
  AUC(0-inf): 435 ng·h/mL
  AUC(0-t): 410 ng·h/mL
  Cmax: 187 ng/mL
  Tmax: 0.5 h
  half-life: 1.96 h
[3]; [13]
  AUC(0-inf): 745 ng·h/mL
  AUC(0-t): 673 ng·h/mL
  Cmax: 191 ng/mL
  Tmax: 0.67 h
  half-life: 3.43 h
[3]; [14]
  AUC(0-inf): 229 ng·h/mL
  AUC(0-t): 218 ng·h/mL
  Cmax: 77.4 ng/mL
  Tmax: 0.5 h
  half-life: 1.67 h
[3]; [15]
  AUC(0-inf): 155 ng·h/mL
  AUC(0-t): 175 ng·h/mL
  Cmax: 34.7 ng/mL
  Tmax: 0.83 h
  half-life: 1.74 h
[3]; [16]
  AUC(0-inf): 282 ng·h/mL
  AUC(0-t): 243 ng·h/mL
  Cmax: 155 ng/mL
  Tmax: 0.25 h
  half-life: 4.28 h
[3]; [17]
  AUC(0-inf): 261 ng·h/mL
  AUC(0-t): 219 ng·h/mL
  Cmax: 94.9 ng/mL
  Tmax: 0.5 h
  half-life: 3.35 h
[3]; [18]
  AUC(0-inf): 397 ng·h/mL
  AUC(0-t): 309 ng·h/mL
  Cmax: 277 ng/mL
  Tmax: 0.25 h
  half-life: 1.63 h
[3]; [19]
  AUC(0-inf): 260 ng·h/mL
  AUC(0-t): 199 ng·h/mL
  Cmax: 119 ng/mL
  Tmax: 0.25 h
  half-life: 2.43 h
[3]; single oral gavage 15-150 mg/kg, rats
  adverse reactions: No adverse reactions were observed
[3]; within both formulations
  increase in exposure, females compared to males: > 5 fold

Reference: US20160030416A1, “METHODS OF TREATING B2-BRADYKININ RECEPTOR MEDIATED ANGIOEDEMA” (SHIRE HUMAN GENETIC THERAPIES, INC., priority 2013, published 2016)
